The NIST ThermoML archive (doi:10.1016/j.jct.2014.03.021)

Key:
[1] = refractive index (Na D-line) (dimensionless); conditions: 101.33 kPa, Liquid, Standard Abbe refractometry
[2] = 101.33 kPa, Liquid; for electrical conductivity: Alternating current cell with electrodes; for speed of sound: Sing-around technique in a fixed-path interferometer; for mass density: Vibrating tube method

C[C@H](O)C(=O)[O-].C[N+](C)(C)CCO
Conditions	electrical conductivity, [2] [S/m]	mass density, [2] [kg/m3]	refractive index, [1]	speed of sound, [2] [m/s]
293.15 K	0.0138	1143.46	1.48146	1935.6
298.15 K	0.0219	1140.3	1.48056	1911.8
303.15 K	0.0327	1137.16	1.47931	1892
308.15 K	0.0455	1134.04	1.47808	1874.8
313.15 K	0.0647	1130.94	1.47676	1859.1
318.15 K	0.0897	1127.86	1.47544	1844.8
323.15 K	0.109	1124.79	1.47418	1831.1

O [water]
Conditions	mass density, [2] [kg/m3]	refractive index, [1]	speed of sound, [2] [m/s]
293.15 K	998.738	1.33299	–
298.15 K	997.576	1.33251	–
303.15 K	996.181	1.33197	–
308.15 K	994.563	1.33135	–
313.15 K	992.744	1.33065	1528.8
318.15 K	990.737	1.3299	–
323.15 K	988.556	1.32911	1542.3
